Key:
[1] = test system: patients with anorexia nervosa; experiment: Example 2: seven patients with anorexia nervosa or related disorders treated with 1 g/day E-EPA; type: in vivo, human
Description: Seven patients underwent treatment of their disorders using EPA. FIGS. 1-5 summarise the results of this study. Participants were given 1 g/day ethyl-EPA (E-EPA) for an initial 3 month period. The E-EPA provided by Laxdale Limited was over 95% pure EPA. If the patient and family wished to continue beyond 3 months, the dose was continued, and in some cases increased beyond 1 g/day. All patients were offered the standard treatment available at the local district health services, including full psychiatric and physical assessment, regular monitoring of physical parameters. Parameters monitored on a monthly basis included the patient's weight and height. BMI, and average body weight and height (ABW) were calculated using Weight 4 Height software (based on 1990 British reference data by the Child Growth Foundation). The following standard psychometric measures were used: EDI-2, BDI-2, CGAS, CGI-S, Morgan-Russell, and patient Likert Scales (including problems, general and improvement).

[2] = test system: patient with AN; experiment: Example 1: case of a patient with AN treated with 1 g/d ethyl-EPA; type: in vivo, human
Description: A patient presented with a 14-month history of dieting and eating difficulties. These had started with dietary restrictions and excessive exercise and proceeded to laxative abuse. Two months prior to being first seen they had stopped taking all solid food. When first seen their weight was still within the normal range for their height at 55 kg for 1.63 m. However, they had lost 8 kg since stopped solid food, had stopped menstruation and begun to grow the fine, downy “lanugo” hair over their body which is common in AN.
They were treated with a standard AN regime of family therapy, psychotherapy and dietary advice. This was ineffective and over the next two months they lost around 10 kg which necessitated their admission to hospital. At this point they were extremely distressed and unable or unwilling to maintain a conversation. Despite their emaciation they were still preoccupied with being fat and wanted to lose more weight. Their heart rate was very slow and their blood glucose was low, signs of starvation. They were treated as an emergency with compulsory naso-gastric feeding with parental consent. After two weeks of this therapy they had gained a little over 2 kg and begun to eat small amounts by mouth. At the end of this time their family removed them from hospital against medical advice.
Over the following ten days they lost a further 5 kg in weight to 42 kg. Their doctors believed that their life was in danger and so obtained an order for compulsory admission to hospital. At the start of this admission they were treated with 1 g/d of ethyl-eicosapentaenoate (E-EPA). This transformed their response to treatment. […] Their mood and cognitive functions improved and they became normally communicative. Instead of being obsessed by weight and food to the exclusion of everything else, they became interested in all aspects of their life and their future. […] After 12 weeks they were discharged from hospital and their body weight stabilised around a normal 62-65 kg. They took a summer job which they enjoyed and completed successfully and enrolled in a college course.

[3] = Patient 2, 1-year follow-up, dosage increased to 2 g/day in later stages
[4] = Patient 5, after three months, 1 g/day
[5] = Patient 6, end of three months, 1 g/day
[6] = 3 months after discharge, scored 0 to 12

CC/C=C\C/C=C\C/C=C\C/C=C\C/C=C\CCCC(=O)OCC [E-EPA, ethyl-eicosapentaenoate]
ABW [1, 3]: 88.3% | BMI [1, 3]: 17.74 | clinical response ([1]; Patient 2, after restart of E-EPA and zinc treatment): significant improvement | lowest ABW ([1]; Patient 2, after stopping E-EPA at 6 months): 73% | clinical response ([1]; Patient 2, by three months, 1 g/day): partially improved | ABW ([1]; Patient 2, three months, 1 g/day, 84.4% after NG feeding): 86.34% | growth in height ([1]; Patient 3, in three months, 1 g/day): 3 cm | mental state ([1]; Patient 3, three months, 1 g/day): significantly improved | BMI ([1]; Patient 3, three months, 1 g/day, 13.3 at referral): 15.5 | ABW ([1]; Patient 3, three months, 1 g/day, 74.4% at referral): 81% | psychometric measures ([1]; Patient 4, 1 g/day): marked improvement | weight stabilised, ABW ([1]; Patient 4, 1 g/day for a total of 6 months, 83.9% at discharge from paediatric hospital): around 85.5% | mood ([1]; Patient 4, after two months, 1 g/day): dramatic improvement | ABW ([1]; Patient 4, within three months after they stopped taking the E-EPA): 80% | panic attacks ([1]; Patient 5, E-EPA increased to 4 g/day): helped with their panic attacks | anxiety [1, 4]: did not improve | weight, eating habits and mood [1, 4]: dramatic improvement | BMI ([1]; Patient 5, after three months, 1 g/day, 17.15 before): 20 | ABW ([1]; Patient 5, after three months, 1 g/day, 77% before): 90% | anorexic symptoms [1, 5]: complete resolution | growth in height [1, 5]: 3 cm | BMI ([1]; Patient 6, end of three months, 1 g/day, 17.57 at first presentation): 19.1 | ABW ([1]; Patient 6, end of three months, 1 g/day, 87% at first presentation): 93.6% | clinical response ([1]; Patient 6, within the first 4-6 weeks, 1 g/day): improved dramatically | growth in height ([1]; Patient 7, during three months treatment): 1.5 cm | BMI ([1]; Patient 7, end of three months treatment, 1 g/day, 14.8 before): 16.21 | ABW ([1]; Patient 7, end of three months treatment, 1 d/day, 78.21 before): 84.5% | clinical response (appetite, mood, self-esteem, psychometric measures) ([1]; Patient No 1, after 2 months of treatment): remarkable improvement | BMI ([1]; Patient No 1, after three months of 1 g E-EPA, 16.9 at hospital admission): 22.8 | ABW ([1]; Patient No 1, after three months of 1 g E-EPA, 83.6% at hospital admission): 111% | relapse of anorexia ([1]; Patient No 1, one-year follow-up, E-EPA stopped after three months): no return of their anorexia | cases with complete recovery ([1]; of the seven patients): three | cases with partial improvement ([1]; of the seven patients): four | growth response ([1]; patients who had growth delay, during the time of the E-EPA treatment): significant growth | deterioration whilst taking the E-EPA ([1]; seven patients): no patient deteriorated | body image perceptions ([2]; 1 g/d, over 12 weeks): lost their distorted body image perceptions | mood and cognitive functions ([2]; 1 g/d, over 12 weeks): improved | eating ([2]; 1 g/d, over the following weeks): began to eat normally | Wt kg ([2]; 2nd hospital discharge on EPA (12 weeks, 1 g/d), 42 at 2nd hospital admission): 57 kg | MR-O (Morgan-Russell overall scale) ([2]; 2nd hospital discharge on EPA, scored 0 to 12, 12 completely normal, 1.2 at 2nd admission): 12.0 | MR-A (food intake) ([2]; 2nd hospital discharge on EPA, scored 0 to 12, 0.0 at 2nd admission): 12.0 | MR-E (overall social-economic-health state) ([2]; 2nd hospital discharge on EPA, scored 0 to 12, 1.0 at 2nd admission): 9.0 | MR-C (mental state) ([2]; 2nd hospital discharge on EPA, scored 0 to 12, 4.0 at 2nd admission): 8.0 | Wt kg ([2]; 3 months after discharge): 63 kg | MR-A (food intake) [2, 6]: 12.0 | MR-C (mental state) [2, 6]: 12.0 | MR-E (overall social-economic-health state) [2, 6]: 11.0 | MR-O (Morgan-Russell overall scale) [2, 6]: 12.0 | body weight stabilised ([2]; after discharge from hospital at 12 weeks): 62 to 65 kg | body weight ([2]; within 12 weeks of 1 g/d, 42 kg at start): 57 kg

From US20060135608A1, “Eicosapentaenoic acid (epa) for treating anorexia nervosa (an) and bulimia” (priority 2002, published 2006)
